Counter-ions that a name gives are not always drawn.
Legend:
[1] = system: Mouse phenylquinone writhing; assay: Mouse phenylquinone writhing inhibitory activity; assay type: in vivo, mouse (Slc: ICR); settings: Mus musculus, po, 20 min, 50 mg/kg, orally; read-out: Inhibitory percentage (phenylquinone writhing)
How it was run: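 Male ICR mice (4 weeks, 17–24 g) dosed orally with compound suspended in 5% gum arabic. After 30 min, 0.02% phenylquinone (0.1 ml/10 g) given i.p.; writhing and stretching responses counted over 20 min.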

[2] = system: Rat reversed passive Arthus reaction (skin); assay: Rat reversed passive Arthus reaction (skin) inhibitory activity; assay type: in vivo, rat (Jcl: SD); settings: po, orally, read-out: Inhibitory percentage (reversed passive Arthus reaction)
Protocol: Rat Reversed Passive Arthus Reaction (skin) Inhibitory Activity This reaction was-induced by using domestic rabbit anti-egg albumin (EA) antiserum according to the method of Chang and Otterness [Chang, Y. -H. and Otterness, I. G.: Eur. J. Pharmacol. 69, 155 (1981)]. Using six Jcl: SD male rats (7 weeks old, weight about 250 g) per one group, the hair was removed from the back under ether anesthesia, 1 ml of 0.5% EA physiological saline was injected […] into the tail vein, and further each 0.1 ml of diluted antiserum (6 mg protein antibody/ml) was injected in the back on both dexter and sinister sides. […] Acceleration of permeability through the vessel by the reaction was measured by injecting 1 ml of 1% Evans blue physiological saline intravenously at three hours after the induction of the reaction. Then, after 30 minutes, the rat was sacrificed by exsanguination. The skin was peeled off and the area of pigment spot (length×breadth, mm^2) was measured.

[3] = system: brewer's yeast induced pyrexia; assay: Antipyretic activity (brewer's yeast induced pyrexia); assay type: in vivo, rat (DS line); settings: orally; for Antipyretic activity, .increment. °C.: at peak time
How it was run: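 Male DS rats (7 weeks, 200-240 g) made febrile by s.c. 15% brewer's yeast 18 h before dosing; only animals at ≥38.5° C used. Compound given orally versus solvent control, with rectal temperature taken by thermistor hourly for 5 h post-dose.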

[4] = system: ART (antigen-responding T-cell); assay: In vitro ART (antigen-responding T-cell) proliferation test; assay type: cell-based, Lewis rat; settings: Rattus norvegicus, T-cell, read-out: % Inhibition of ART growth
cyclooxygenase = biological target: T1, cyclooxygenase (Rattus norvegicus, UniProt Q63921); assay: Cyclooxygenase inhibitory activity (HHT formation from arachidonic acid in rat platelet-rich plasma); assay type: cell-based, rat (Jcl:wistar)
T1 construct: from tissue; host or cells: platelets in platelet-rich plasma from rat abdominal aorta blood (Jcl:wistar, male)
T1 sequence (Q63921 27-602): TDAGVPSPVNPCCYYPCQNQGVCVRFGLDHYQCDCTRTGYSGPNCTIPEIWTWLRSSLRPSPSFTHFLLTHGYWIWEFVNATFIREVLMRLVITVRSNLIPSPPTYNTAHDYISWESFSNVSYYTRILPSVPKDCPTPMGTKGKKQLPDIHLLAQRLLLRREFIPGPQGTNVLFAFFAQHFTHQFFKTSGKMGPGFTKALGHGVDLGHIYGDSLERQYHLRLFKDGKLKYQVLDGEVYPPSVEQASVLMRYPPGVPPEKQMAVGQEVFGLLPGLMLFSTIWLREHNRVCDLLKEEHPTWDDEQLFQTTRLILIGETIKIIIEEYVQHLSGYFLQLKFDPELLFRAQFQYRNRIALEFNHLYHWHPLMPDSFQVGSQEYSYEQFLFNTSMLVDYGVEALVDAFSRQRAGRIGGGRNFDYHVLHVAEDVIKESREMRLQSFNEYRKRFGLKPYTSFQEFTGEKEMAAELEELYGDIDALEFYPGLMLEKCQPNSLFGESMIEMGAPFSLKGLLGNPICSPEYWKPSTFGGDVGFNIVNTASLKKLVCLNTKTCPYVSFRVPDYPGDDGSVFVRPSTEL

[5] = system: Mouse acetic acid writhing; assay: Mouse acetic acid writhing inhibitory activity; assay type: in vivo, mouse (Slc: ICR); settings: Mus musculus, po, 20 min, orally, read-out: Inhibitory percentage (acetic acid writhing)
Protocol: Mouse Acetic Acid Writhing Inhibitory Activity
Ten male Slc: ICR mice, 4 weeks old, per 1 group were used. A test compound was administered orally, and after 30 minutes, 0.1 ml/10 g body weight of physiological saline containing 0.6% acetic acid was injected intraperitoneally. For 20 minutes, writhing (in agony condition) response by administration of acetic acid was counted regarding individual animals. The inhibitory percentage relative to the mean response counts of a control group was calculated regarding respective animals in a test compound administration group. The test compound was suspended in 5% gum arabic solution, and the administration volume was 0.2 ml/10 g.

[6] = system: brewer's yeast inflamed rat hind limb foot pad pain threshold; assay: Pain relief test by Randall Celit method; assay type: in vivo; settings: orally
Protocol: Pain Relief Test By Randall Celit Method
Seven to eight male Jcl: […] rats, 5 weeks old, per one group were used. 0.1 ml of 10% brewer's yeast physiological saline suspension was injected subcutaneously in the rat dexter hind limb foot pad to induce inflammation. After three hours, the pain threshold was measured by pressure stimulating pain relief measuring apparatus manufactured by Ugo Basile Company (Cat. No. 7200) using an index of […] pain reflex in the inflammatory limb (dexter hind limb), and this was taken as response threshold value in the inflammatory limb. A test compound was administered after additional 45 minutes orally, and the threshold was measured after one and two hours. The efficacy was determined by comparing threshold of a control group and that of the test compound group. The test compound was suspended in 5% gum arabic solution and the administration volume was 0.5 ml/100 g.

[7] = system: Rat carrageenin pedal edema; assay: Rat carrageenin pedal edema inhibitory activity; assay type: in vivo, rat (Jcl: SD); settings: Rattus norvegicus, po, 3 h, orally, 3 hours after carrageenin, read-out: Inhibitory percentage (carrageenin pedal edema)
How it was run: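 Male Jcl:SD rats (6 weeks, 160-220 g) received test compound orally as a 5% gum arabic suspension, topped up with water to 5 ml/rat. One hour later 0.05 ml of 1% carrageenin was injected subcutaneously into the right hind foot pad. Edema volume was the foot volume increase 3 hours post-injection.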

ICAM-1 = assay: Adhesion protein expression inhibitory activity, ICAM-1; assay type: cell-based; settings: human umbilical vascular endothelial cells, TNF-α, 360 min
Protocol: (§1) Adhesion Protein Expression Inhibitory Activity The various concentrations of test compounds were added to the human umbilical cord-derived vascular endothelial cells [sold by Klabo] which were seeded in the gelatin coat plate and the mixture was incubated at 37° C. for 15 minutes. Then, the human tumor necrosis factor-α[TNF-α; sold by Genzyme] was added therein to the final concentration of 1 ng/ml and incubation was carried out at 37° C. for 3 hours for expression of ELAM-1 and for 6 hours for that of ICAM-I. After the reaction, the cells were fixed using glutaraldhyde and the expression amount of ELAM-1 and ICAM-1 was measured by the cell-ELISA method. That is, the expression was determined by […] the adhesion proteins on the cells in the system using anti-ELAM-1 antibody BBA-2 and anti-ICAM-1 antibody BBA4 as the first antibody as well as horseradish peroxidase-labeled rabbit anti-mouse IgG antibody as the second antibody.

[8] = system: PAF induced respiratory tract constriction; assay: PAF induced respiratory tract constriction inhibitory activity; assay type: in vivo, guinea pig (Hartley); settings: intravenously
Source text: PAF Induced Respiratory Tract Constriction Inhibitory Activity Male and female Hartley guinea pigs, weighing about 100 g, were used. The guinea pigs were fixed at a dorsal position under urethane anethesia (1.5 g/kg, i.p.). One leg of a cannula (having four legs) was inserted in the trachea and two of the other three legs were bound to the respirator (Harvard apparatus rodent respirator). The remaining one leg (side branch) was bound to the bronchospasm transducer 7.020 (Ugobasile). Under the conditions of 5 to 7 ml of air supply/time, 70 times/min. of supply time and 10 cm H2 O of pulmonary pressure load, the amount of over flow air was recorded on a Rectigraph (Rectigraph-8S, Saneissoki) via the transducer. After Gallamine […] treatment (1 mg/kg, i.v.), PAF was administered intravenously (1.0 μg/kg) and the maximum respiratory tract constriction response was observed after 30 seconds. Under these conditions, the inhibitory activity of the test compounds were examined.

ELAM-1 = assay: Adhesion protein expression inhibitory activity, ELAM-1; assay type: cell-based; settings: 13 μM, human umbilical vascular endothelial cells, TNF-α; 180 min
Protocol: as §1

Compound	Antipyretic activity, peak time ([3]; 50 mg/kg) [h]	Antipyretic activity, .increment. °C. ([3]; 50 mg/kg) [°C]	inhibition at 1 µM [4] [%]	inhibition at 10 µM [4] [%]	inhibition in vivo at 50 mg/kg [5] [%]	inhibition in vivo at 50 mg/kg [7] [%]	Inhibitory activity (PAF induced respiratory tract constriction) ([8]; 3 mg/kg) [%]	other results
CC(C)(C)c1ccc(C(=O)NCCCSc2ccncc2)cc1 [Example 32, 4-[3-(4-t-butylbenzoylamino)propylthio]pyridine hydrochloride]	1	-1.39	43	37				inhibition in vivo at 50 mg/kg [1]: 63%; inhibition in vivo at 50 mg/kg [2]: 41%; IC50 (cyclooxygenase): 6.5 µM
O=C1CSC(=O)N1CSc1ccncc1 [Example 169, 4-(2,4-thiazolidinedionemethylthio)pyridine]	2	-2.43			96	44		Antipyretic activity, peak time ([3]; 12.5 mg/kg): 2 h; Antipyretic activity, .increment. °C. ([3]; 12.5 mg/kg): -2.13 °C; % Of Control (pain threshold) ([6]; 50 mg/kg, 1 hour): 215.2 ± 16.1 % Of Control; % Of Control (pain threshold) ([6]; 50 mg/kg, 2 hours): 158.4 ± 26.2 % Of Control; % Of Control (pain threshold) ([6]; 200 mg/kg, 1 hour): 242 ± 21.9 % Of Control; % Of Control (pain threshold) ([6]; 200 mg/kg, 2 hours): 326.1 ± 80.1 % Of Control
O=c1c2ccccc2n(CCCCSc2ccncc2)c(=O)n1CCCCSc1ccncc1 [Example 147, 1,3-bis[4-(4-pyridylthio)butyl]quinazolin-2,4(1H,3H)-dione]			9	72	46		50.7	Expression Inhibitory Potency, ICAM-1 (ICAM-1; 13 μM): 83%; Expression Inhibitory Potency, ELAM-1 (ELAM-1): 96%; IC50 (cyclooxygenase): 1.8 µM
Cl.Cl.O=c1c2ccccc2n(CSc2ccncc2)c(=O)n1CCCCSc1ccncc1 [Example 199, 1-(4-pyridylthio)methyl-3-[4-(4-pyridylthio)butyl]quinazoline-2,4(1H,3H)-dione dihydrochloride]							53.5	
O=c1c2ccccc2oc(=S)n1CCCCSc1ccncc1 [Example 162, 3-[4-(4-pyridylthio)butyl]-2H-1,3-benzoxadine-2-thion-4(3H)-on]			-31	-54		34	39.8	
O=C1c2ccccc2C(=O)N1CSc1ccncc1 [Example 62, 4-(phthalimidomethylthio)pyridine]	4	-1.40				36		inhibition in vivo at 50 mg/kg [1]: 55%; inhibition in vivo at 50 mg/kg [2]: 27%; inhibition in vivo at 12.5 mg/kg ([7]; 12.5 mg/kg): 20%
CC1(C)OC(=O)N(CSc2ccncc2)C1=O [Example 173, 4-(5,5-dimethyloxazolidine-2,4-dione)methylthiopyridine]	2	-2.02			75	23		Expression Inhibitory Potency, ICAM-1 (ICAM-1; 30 μM): 35%; % Of Control (pain threshold) ([6]; 200 mg/kg, 1 hour): 222.7 ± 26.4 % Of Control; % Of Control (pain threshold) ([6]; 200 mg/kg, 2 hours): 165.8 ± 24.9 % Of Control
Cl.Cl.O=c1c2ccccc2n(CCCCSc2ccncc2)c(=S)n1CCCCSc1ccncc1 [Example 200, 1,3-bis[4-(4-pyridylthio)butyl]quinazoline-2(1H)-thion-4(3H)-one dihydrochloride]								Expression Inhibitory Potency, ICAM-1 (ICAM-1; 13 μM): 83%; Inhibitory activity (PAF induced respiratory tract constriction) ([8]; 10 mg/kg): 61.4%; Expression Inhibitory Potency, ELAM-1 (ELAM-1): 71%
O=c1c2ccccc2oc(=S)n1CCCSc1ccncc1 [Example 141, 3-[3-(4-pyridylthio)propyl]-2H-1,3-benzoxadine-2-thion-4(3H)-one]	3	-2.40	-21	64		36	51.7	Expression Inhibitory Potency, ICAM-1 (ICAM-1; 3 μM): 21%; Expression Inhibitory Potency, ICAM-1 (ICAM-1; 30 μM): 54%; Antipyretic activity, peak time ([3]; 12.5 mg/kg): 3 h; Antipyretic activity, .increment. °C. ([3]; 12.5 mg/kg): -1.60 °C
CCC(=O)N(CCCCSc1ccncc1)c1ccccc1N(CCCCSc1ccncc1)C(=O)CC.Cl.Cl [Example 203, 1,2-bis[N-[4-(4-pyridylthio)butyl]-N-propionylamino]benzene dihydrochloride]								Inhibitory activity (PAF induced respiratory tract constriction) ([8]; 0.3 mg/kg): 90.4%

Source: patent US5457106A, “Pyridine derivatives, their production and use” (Takeda Chemical Industries, Ltd., priority 1991, dated 1995)
